This data set can be described thus: Solubility of ketoconazole in lipid excipients (observation of undissolved crystals). In kind it is physicochemical. The settings on record: ambient room temperature; estimated. The procedure: The solubility of ketoconazole in glycerol monooleate was assessed at 37° C. according to the following method. 2 g samples of ketoconazole (USP) and glycerol monooleate were mixed together in various proportions and put on a magnetic stirrer at 37° C. Samples containing 1, 3 and 5 wt. % of ketoconazole were investigated for the observation of ketoconazole crystals. Samples containing 1 wt. % ketoconazole were completely dissolved after less than 18 h but more than 2 h. Samples containing 3 wt % ketoconazole were almost homogeneous after 48 h, after which no further change of the sample took place. […] Thus, at 37° C. ketoconazole has a limited solubility in glycerol monooleate. It is estimated to be between 1 and 3 wt. %.
The solubility of ketoconazole in oleic acid was assessed at ambient room temperature using the method described in Example 1. Samples containing 5, 10, 15 and 33 wt. % of ketoconazole were mixed with oleic acid and the appearance of undissolved ketoconazole was investigated after 24 and 48 h. After 24 hours samples containing 5 wt. % ketoconazole were completely dissolved and after 48 h samples containing 10 wt. % of ketoconazole were completely homogenous and all ketoconazole was dissolved. Thus the solubility of ketoconazole in oleic acid is estimated to be about 10 wt. %.

The text below walks through data of patent US20020055512A1, “Compositions for delivery of a cortisol antagonist” (CORTENDO AB., priority 2000, published 2002).

On to `CC(=O)N1CCN(c2ccc(OCC3COC(Cn4ccnc4)(c4ccc(Cl)cc4Cl)O3)cc2)CC1` (stereo not shown) [ketoconazole, Ketoconazole], for which the “solubility of ketoconazole in oleic acid” value is “about 10 wt. %”.
